The values below come from patent US4696918A, “Solubilized platinum compound” (Johnson Matthey Public Limited Company, priority 1984, dated 1987).

A short description of series [1]: association with α-cyclodextrin by 1H n.m.r. spectroscopy. Type of series: physicochemical. The conditions noted are these: D2O, ca. 22° C.; corrected chemical shifts H-3 and H-a vs fraction bound. How it is done: (§1) We have studied the association constant for the preferred compound according to the invention by a micro-calorimetric method which involves measuring the heat evolved when solutions of the platinum(II) compound and α-cyclodextrin are mixed and also by using a ^1 H n.m.r. spectroscopic approach.
For the spectroscopic approach, two types of spectroscopic investigations were performed in D2 O at ca. 22° C. using a Bruker AM250FT Spectrometer. In the first series of experiments, equimolar solutions of Pt(NH3)2.CBDCA and α-cyclodextrin were studied at various dilutions and, in the second series of experiments, the concentration of the platinum complex was kept constant and the concentration of the α-cyclodextrin was varied. When processing the chemical shift data, corrections were made to allow for the tendency of α-cyclodextrin to self-associate. […] The latter was calculated from the equilibrium constant, corrected to the aquamolal scale, obtained from the microcalorimetric measurements.

For series [2], the system named is kidneys. Nature of the series: in vivo nephrotoxicity. More on the design: species or system male Wistar albino rats. The conditions noted are these: rat; for histological examination of the kidneys / plasma urea nitrogen levels / urine protein levels (proteinuria): in vivo; for gross nephrotoxicity: from plasma urea nitrogen. The text has this:
(§2) The kidneys were also subjected to histological examination.

The conditions of series [3]: cited from earlier work.
A short description of series [4]: distribution of platinum in blood, urine and faeces following intravenous administration. Format: in vivo, male Wistar albino rats. The conditions noted are these: rat, 24 hours.
Series [5] is described as follows: association with α-cyclodextrin by microcalorimetry. Type of series: physicochemical.
From the text: as §1
For the microcalorimetry experiments, a solution of the platinum complex (0.02366 mol kg^-1) in water was mixed with a range of aqueous solutions of α-cyclodextrin (ca. 0.01-0.1 mol kg^-1) in a batch calorimeter operating at 25° C. A series of preliminary experiments was performed so that corrections for the contributions arising from the enthalpy of dilution of the two solutes could be made. The expression linking the enthalpy change per mol (ΔH) of Pt(NH3)2.CBDCAto the final molalities of both this guest (G) and the α-cyclodextrin host (H) and to the equilibrium constant (Ka) and the standard enthalpy change (ΔH⊖) for the equilibrium,
H+G.revreaction.H·G,
Ka =ΔH·ΔH⊖ /(ΔH⊖
[H]-ΔH[G])(ΔH⊖ -ΔH) (1)
In the Figure, the filled circles denote experimental points and the line denotes the analysis obtained using Equation (1). It is seen that good correlation is obtained between theory and practice.

A short description of series [6]: in vivo haematotoxicity. The arrangement: species or system male Wistar albino rats. The conditions noted are these: rat; for haematotoxicity and nephrotoxicity testing, comparison of the two compounds: blood samples days 1, 4, 8, 12 and 16 after injection, haematocrit, white blood cell counts, plasma urea nitrogen.
From the text: as §2

Read-outs that look alike come from different tables or passages of the source.

`N.N.O=C([O-])C1(C(=O)[O-])CCC1.[Pt+4]` [Pt(NH3)2.CBDCA, 1,1-cyclobutanedicarboxylatediammineplatinum(II)]: the “agreement between n.m.r. and thermodynamic results” value in series [1] was “excellent agreement between the n.m.r. and thermodynamic results”. Further, in series [2], the “histological examination of the kidneys” value is listed as “Some nuclear enlargement of the kidneys”, the “plasma urea nitrogen levels” value is “remained constant throughout the study period”, the “urine protein levels (proteinuria)” value was “no obvious proteinuria was observed” and the gross nephrotoxicity result was “no gross nephtrotoxicity”. For the same compound, the general toxicity result in series [3] (compared with certain other platinum-containing compounds, particularly cisplatin) is on record as “relatively non-toxic”. Also, in series [3] (relative to cisplatin), the kidney toxicity entry is “reduced dramatically”. Moreover, the “aqueous solubility (attainable concentration)” value (water) was found to be 50 mM. For the same compound, in series [4], the “faecal levels, Pt excretion” value is recorded as 4-5% and the “urine levels, Pt excretion” value is given as 65-67%. Moreover, in series [5] (association with α-cyclodextrin in water, recorded in FIG. 2), the “standard entropy change ΔS⊖” value is -27 J K^-1 mol^-1. The “tendency to associate with α-cyclodextrin” value in series [5] (in water) is listed as “very marked tendency to associate with α-cyclodextrin in water”. In addition, in series [5] (in water, 25° C., association with α-cyclodextrin), the “standard enthalpy change ΔH⊖” value was -5.02 ± 0.478 kcal/mol. Besides, the “association (equilibrium) constant Ka” value in series [5] (in water, 25° C., α-cyclodextrin host) came to 199 ± 10 kg/mol. In addition, in series [6], the “haematotoxicity and nephrotoxicity testing, comparison of the two compounds” value is reported as “Results as between the two test compounds were similar”.

As to “inclusion compound of 1,1-cyclobutanedicarboxylatediammineplatinum(II) and α-cyclodextrin”, in series [2], the “histological examination of the kidneys” value is “Some nuclear enlargement of the kidneys”, the “plasma urea nitrogen levels” value is on record as “remained constant throughout the study period”, the “urine protein levels (proteinuria)” value is listed as “no obvious proteinuria was observed” and the gross nephrotoxicity entry is “no gross nephtrotoxicity”. Further, the “aqueous solubility (attainable concentration)” value (aqueous α-cyclodextrin solution) is on record as “approximately 200 mM”. In addition, in series [4], the “faecal levels, Pt excretion” value is given as 4-5% and the “urine levels, Pt excretion” value is 65-67%. Further, in series [6], the “haematotoxicity and nephrotoxicity testing, comparison of the two compounds” value is reported as “Results as between the two test compounds were similar”. Moreover, the “anaemic and myelosuppressive response” value in series [6] (inclusion compound compared with Pt(NH3)2.CBDCA alone) is “slightly less anaemic and myelosuppressive response”.
